Series [1] is described as follows: Absorption spectroscopy (UV/Vis). Type of series: physicochemical. As for the experimental part: (§1) Absorption spectra were recorded with a Varian Cary 4000 UV-Vis double-beam spectrophotometer (Agilent Technologies, USA). For the determination of the absorption spectra, quartz cells with a 1 cm path length were used. Emission spectra and fluorescence quantum yield were obtained on a Quantaurus-QY Absolute PL quantum yield spectrometer C11347 (Hamamatsu Photonics, Japan) or on a Varian Cary Eclipse fluorescence spectrometer (Agilent Technologies, USA).

The nature of series [2]: Emission spectra and fluorescence quantum yield. Type of series: physicochemical. Here is the method: as §1
For series [3], the system named is vimentin-HaloTag fusion protein in a living HeLa cell. Put plainly: Confocal and STED imaging of vimentin-HaloTag in living cells. The class given is cell-based. The arrangement: key to verified as a label in STED microscopy: verified as a label in super-resolution microscopy based on stimulated emission depletion (STED with 775 nm STED laser). Here is the method:
(§2) STED and confocal counterpart images were acquired using the commercially available two-color STED 775 quad scanning microscope from Abberior Instruments (Gottingen, Germany) equipped with an Olympus IX83 microscope stand and an Olympus UplanSApo 100×/1.4 OIL objective. Dyes were excited respective their excitation; the STED laser was pulsed at 775 nm.
(§3) For these experiments, STED optical microscopy was performed as indicated above.
The vimentin-HaloTag was labeled with 16-Halo (1 μM for 20 min at growth conditions, 10 min wash) and excited using a pulsed 594 nm laser. Fluorescence was detected in both available detection channels (605-625 nm, 655-715nm) and summed up for the final images. Scale bar: 4 μm; pixel dwell time: 10 μs; pixel size: 20 nm for both the STED and the confocal image. Each line was scanned four times, and the counts were accumulated.

The next series can be described thus: Fluorescence lifetime. Type of series: physicochemical. Particulars: in aq. PBS, pH 7.4.
For series [4], the system named is tubulin filaments in a methanol-fixed Vero cell. Put plainly: Confocal and STED imaging of immunolabelled tubulin filaments. Type of series: cell-based. The arrangement: key to verified as a label in STED microscopy: verified as a label in super-resolution microscopy based on stimulated emission depletion (STED with 775 nm STED laser). As for the experimental part:
as §2, §3
Tubulin was marked using a mouse monoclonal primary antibody against alpha-tubulin together with secondary antibody detection (sheep-anti-mouse conjugated with the dye 23-NHS). 23 was excited using a pulsed 485 nm laser. Fluorescence was detected in both available detection channels (605-625 nm, 655-715nm) and summed up for the final images. Scale bar: 4 μm; pixel dwell time: 10 μs; pixel size: 25 nm for both the STED and the confocal image. Each line in the STED channel was scanned twice, and the counts were accumulated.

Structures are written as SMILES. “And” between values parts separate entries of the source, which are not always exact repeats. Identical values can stand only once. Marks after values point to notes of the source that are not given here.

Regarding `CCN(CC)CC.CN(CCCCCC(=O)[O-])C(=O)CCP(=O)(O)c1c2ccc(N(C)C)cc2[o+]c2cc(N(C)C)ccc12` [Compound 16, Triethylammonium 6-[3-[[3,6-bis(dimethylamino)-9H-xanthenylium-9-yl]oxidophosphoryl]-N-methylpropanamido]hexanoate], the “ε at absorption max.” value in series [1] (pH 7.4) was found to be 10750 M⁻¹ cm⁻¹. Further, in series [2] (pH 7.4), the Emission max. is 636 nm and 636 ^ (0.30)^b nm; the Stokes shift was 33^b nm. Further, in series [3] (STED with 775 nm STED laser), the “verified as a label in STED microscopy” value is reported as “good^f”.

`CN(C)c1ccc2c(P(=O)([O-])CCC(=O)NCCOCCOCCCCCCCl)c3ccc(=[N+](C)C)cc-3oc2c1` [Compound 16-Halo, 3-[[2[2-(6-chlorohexyloxy)ethoxy]ethyl]amino]-3-oxopropyl[6-(dimethylamino)-3-(dimethyliminio)-3H-xanthen-9-yl]phosphinate]: the “labelling of vimentin-HaloTag” value in series [3] (1 μM for 20 min at growth conditions, 10 min wash, excitation 594 nm) was “labeled”.

For the molecule `CN(C)c1ccc2c([PH](=O)O)c3ccc(N(C)C)cc3[n+](CCCC(=O)O)c2c1.O=C([O-])C(F)(F)F` [Compound 23, 10-(3-Carboxypropyl)-3,6-bis(dimethylamino)-9-(hydroxyhydrophosphoryl)acridinium trifluoroacetate], the fluorescence lifetime in “Fluorescence lifetime” worked out at 1.36 ns. Also, in series [1] (in aq. PBS, pH 7.4), the Absorption max. turned out to be 535 nm and the “ε at absorption max.” value was 38000 M⁻¹ cm⁻¹. For the same molecule, in series [1] (in methanol), the Absorption max. amounted to 527 nm and the “ε at absorption max.” value was found to be 67000 M⁻¹ cm⁻¹. Further, the “verified as a label in STED microscopy” value in series [4] (STED with 775 nm STED laser) is on record as “f”. Besides, the “QY (fluorescence quantum yield, Φfl)” value in series [2] (in aq. PBS, pH 7.4) was 0.14 and 0.10. In series [2] (in methanol), the Emission max. is 579 nm and the “QY (fluorescence quantum yield, Φfl)” value came to 0.75.

For the molecule `CN(C)c1ccc2c([PH](=O)[O-])c3ccc(N(C)C)cc3[n+](CCCC(=O)ON3C(=O)CCC3=O)c2c1` [Compound 23-NHS, [10-(3-Carboxypropyl)-3,6-bis(dimethylamino)acridinium-9-yl]phosphinate NHS ester], the “labelling of tubulin via secondary antibody conjugate” value in series [4] (sheep-anti-mouse antibody conjugated with the dye, excitation 485 nm) is “marked”.

The values above are taken from patent US10174202B2, “Dyes with phosphinic acid, phosphinate, phosphonate and phosphonamidate substituents as auxochromic groups and methods for preparing the same” (Max-Planck-Gesellschaft zur Foerderung der Wissenschaften …, priority 2017, dated 2019).
